How the values were obtained:
Assay in all cases: relative viability (nuclei count vs DMSO), 5 days (fraction); higher = more cells survive
[1] = compound: C1CNCCC1C2=CC(=NN2)C3=CC=NC=C3 + Cc1nc(Nc2ncc(C(=O)Nc3c(C)cccc3Cl)s2)cc(N2CCN(CCO)CC2)n1 [Dasatinib] (partner 0.075 µM)
Outline: (§1)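 One day after seeding in 1536-well plates, lung cancer cell lines were dosed by pin tool. Dosing was either single-drug or a fixed anchor-drug dose plus five library-drug doses (not always all listed) in √10 steps. After 5 days, nuclei were stained in one fix-and-stain step and counted on 4× images, and relative viability is the nuclei count of treated wells over that of vehicle wells, given as the median of duplicate plates.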

[2] = compound: C[C@@H](N)c1ccc(C(=O)Nc2ccnc3[nH]ccc23)cc1 + Cc1nc(Nc2ncc(C(=O)Nc3c(C)cccc3Cl)s2)cc(N2CCN(CCO)CC2)n1 [Dasatinib] (partner 0.075 µM)
Outline: as §1

Tanzisertib + Lapatinib = compound: O[C@H]1CC[C@H](Nc2ncc3nc(Nc4c(F)cc(F)cc4F)n([C@H]4CCOC4)c3n2)CC1 [Tanzisertib] + CS(=O)(=O)CCNCc1ccc(-c2ccc3ncnc(Nc4ccc(OCc5cccc(F)c5)c(Cl)c4)c3c2)o1 [Lapatinib] (partner 2 µM)
Outline: as §1

Tanzisertib + Phenformin = compound: O[C@H]1CC[C@H](Nc2ncc3nc(Nc4c(F)cc(F)cc4F)n([C@H]4CCOC4)c3n2)CC1 [Tanzisertib] + N=C(N)NC(=N)NCCc1ccccc1 [Phenformin] (partner 250 µM)
Outline: as §1

| Cell Line | relative viability ([1]; first compound 0.08 µM) | relative viability ([1]; first compound 0.8 µM) | relative viability ([1]; first compound 2.53 µM) | relative viability ([1]; first compound 8 µM) | relative viability ([2]; first compound 0.04 µM) | relative viability ([2]; first compound 0.1265 µM) | relative viability ([2]; first compound 0.4 µM) | relative viability ([2]; first compound 1.265 µM) | relative viability ([2]; first compound 4 µM) | relative viability (Tanzisertib + Lapatinib; first compound 0.08 µM) | relative viability (Tanzisertib + Lapatinib; first compound 0.253 µM) | relative viability (Tanzisertib + Lapatinib; first compound 0.8 µM) | relative viability (Tanzisertib + Lapatinib; first compound 2.53 µM) | relative viability (Tanzisertib + Lapatinib; first compound 8 µM) | relative viability (Tanzisertib + Phenformin; first compound 0.08 µM) | relative viability (Tanzisertib + Phenformin; first compound 0.253 µM) | relative viability (Tanzisertib + Phenformin; first compound 0.8 µM) | relative viability (Tanzisertib + Phenformin; first compound 2.53 µM) | relative viability (Tanzisertib + Phenformin; first compound 8 µM) |
| --- | --- | --- | --- | --- | --- | --- | --- | --- | --- | --- | --- | --- | --- | --- | --- | --- | --- | --- | --- |
| NCI-H727 | 0.489 | 0.5 | 0.33 | 0.328 | 0.628 | 0.529 | 0.71 | 0.479 | 0.725 | 0.934 | 0.872 | 0.952 | 0.988 | 0.842 | 0.581 | 0.504 | 0.458 | 0.497 | 0.465 |
| NCI-H1792 | 0.774 | 0.836 | 0.781 | 0.854 | 0.831 | 0.875 | 0.826 | 0.672 | 0.534 | 1.01 | 0.967 | 0.867 | 0.825 | 0.798 | 0.233 | 0.467 | 0.544 | 0.38 | 0.475 |
| COR-L23 | 0.532 | 0.417 | 0.518 | 0.469 | 0.44 | 0.511 | 0.466 | 0.424 | 0.266 | 1.12 | 0.954 | 0.961 | 1.07 | 0.98 | 0.479 | 0.489 | 0.432 | 0.483 | 0.475 |
| HOP-62 | 0.691 | 0.635 | 0.703 | 0.648 | 0.435 | 0.632 | 0.617 | 0.515 | 0.303 | 1.25 | 0.85 | 1.06 | 1.12 | 0.511 | 0.758 | 0.709 | 0.671 | 0.671 | 0.729 |
| NCI-H1915 | 0.286 | 0.311 | 0.316 | 0.308 | 0.315 | 0.262 | 0.276 | – | 0.308 | 0.994 | 1 | 0.897 | 1.02 | 0.947 | 0.4 | 0.355 | 0.364 | 0.365 | 0.291 |
| BEN | 0.266 | 0.286 | 0.339 | 0.326 | 0.245 | 0.252 | 0.396 | 0.319 | 0.265 | 0.773 | 0.806 | 0.721 | 0.795 | 0.712 | 0.254 | 0.235 | 0.275 | 0.266 | 0.255 |
| NCI-H1437 | 0.464 | 0.381 | 0.406 | 0.45 | 0.451 | 0.292 | 0.372 | 0.471 | 0.393 | 0.831 | 0.859 | 0.787 | 0.824 | 0.778 | 0.287 | 0.314 | 0.303 | 0.276 | 0.283 |
| EMC-BAC-2 | 0.261 | 0.349 | 0.352 | 0.395 | 0.263 | 0.337 | 0.314 | 0.266 | 0.315 | 1.03 | 0.923 | 0.931 | 0.867 | 0.841 | 0.51 | 0.507 | 0.528 | 0.51 | 0.502 |
| NCI-H647 | 0.176 | 0.169 | 0.187 | 0.161 | 0.15 | 0.172 | 0.157 | 0.166 | 0.133 | 1.28 | 1.23 | 1.01 | 1.31 | 0.917 | 0.531 | 0.703 | 0.481 | 0.487 | 0.555 |
| LXF-289 | 0.267 | 0.184 | 0.228 | 0.185 | 0.105 | 0.234 | 0.185 | 0.11 | 0.116 | 0.99 | 0.883 | 0.983 | 0.926 | 0.977 | 0.55 | 0.532 | 0.519 | 0.545 | 0.535 |
| LOU-NH91 | 0.527 | 0.572 | 0.624 | 0.545 | 0.425 | 0.571 | 0.527 | 0.492 | 0.394 | 0.782 | 0.775 | 0.64 | 0.771 | 0.716 | 0.731 | 0.763 | 0.746 | 0.73 | 0.439 |
| NCI-H23 | 0.826 | 0.808 | 0.805 | 0.908 | 0.77 | 0.736 | 0.862 | – | 0.76 | 1.4 | 0.998 | 0.964 | 1.05 | 0.936 | 0.808 | 0.808 | 0.84 | 0.795 | 0.668 |
| NCI-H1993 | 0.538 | 0.541 | 0.56 | 0.667 | 0.745 | 0.754 | 0.856 | 0.917 | 0.8 | 0.815 | 0.846 | 0.914 | 0.777 | 0.748 | 0.484 | 0.508 | 0.49 | 0.491 | 0.537 |
| HCC-827 | 0.366 | 0.228 | 0.302 | 0.308 | 0.411 | 0.466 | 0.433 | 0.46 | 0.267 | 0.19 | 0.186 | 0.201 | 0.24 | 0.183 | 0.409 | 0.417 | 0.398 | 0.382 | 0.242 |
| NCI-H650 | 0.468 | 0.45 | 0.5 | 0.428 | – | 0.41 | 0.393 | 0.245 | 0.32 | 0.963 | 1.14 | 1.02 | 1.06 | 0.295 | 0.472 | 0.476 | 0.461 | 0.526 | 0.327 |
| CAL-12T | 0.49 | 0.49 | 0.625 | 0.475 | 0.52 | 0.524 | 0.461 | 0.316 | 0.338 | 0.635 | 0.617 | 0.795 | 0.762 | 0.72 | 0.517 | 0.566 | 0.625 | 0.628 | 0.556 |
| NCI-H838 | 0.308 | 0.295 | 0.277 | 0.3 | 0.221 | 0.305 | 0.26 | 0.187 | 0.233 | 1.22 | 0.993 | 1.04 | 0.998 | 0.958 | 0.666 | 0.608 | 0.628 | 0.587 | 0.541 |
